Laboratory results reported in patent US9247759B2, “Identification of human T2R receptors that respond to bitter compounds that elicit the bitter taste in compositions, and the use thereof in assays to identify compounds that inhibit (block) bitter taste in compositions and use thereof” (SENOMYX, INC., priority 2007, dated 2016).
Like-named read-outs stand apart in the source and are kept apart here.

Molecular target: hT2R8 (Homo sapiens (Human), UniProt Q9NYW2)
Assay: hT2R8 antagonist high-throughput FLIPR assay, stable cell line with G16g44, agonist andrographolide
Assay type: cell-based
Method in brief: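 HEK293 cells stably co-expressing hT2R8 and chimeric G16g44, read on FLIPR. Test compounds added together with andrographolide (200 μM), which drives the receptor to 70–80% of maximal activity; antagonism seen as reduced agonist response.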

[1] = table after Example 12-37, read-out: hT2R8 IC50
[2] = read-out: IC50 on hT2R8 bitter receptor
[3] = table after Example 10-97, read-out: hT2R8 IC50
[4] = unit uM, read-out: IC50 on hT2R08 bitter receptor

hT2R8, sequence (Q9NYW2 whole entry): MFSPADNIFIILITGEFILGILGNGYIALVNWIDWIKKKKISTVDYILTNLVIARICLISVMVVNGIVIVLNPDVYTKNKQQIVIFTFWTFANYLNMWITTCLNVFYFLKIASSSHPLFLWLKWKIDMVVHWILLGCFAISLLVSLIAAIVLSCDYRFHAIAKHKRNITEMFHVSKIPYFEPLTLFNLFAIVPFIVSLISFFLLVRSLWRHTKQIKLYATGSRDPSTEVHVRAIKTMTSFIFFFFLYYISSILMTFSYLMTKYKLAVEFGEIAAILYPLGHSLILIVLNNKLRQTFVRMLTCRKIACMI

SMILES: Cc1ccc(CN2C(=O)N(c3cnn(Cc4c(C)noc4C)c3)C(=O)C2(C)C)cc1 [Example 12-81, 3-(1-((3,5-dimethylisoxazol-4-yl)methyl)-1H-pyrazol-4-yl)-5,5-dimethyl-1-(4-methylbenzyl)imidazolidine-2,4-dione]
- IC50 [1]: 0.74 µM

SMILES: CC(=O)OC(C(=O)Nc1cnn(Cc2c(C)noc2C)c1)c1ccccc1 (stereo not shown) [Example 4-39, 2-(1-((3,5-dimethylisoxazol-4-yl)methyl)-1H-pyrazol-4-ylamino)-2-oxo-1-phenylethyl acetate]
- IC50 (Table A, read-out: hT2R8 IC50): 0.83 µM

SMILES: COc1ccc(OC)c(CN2C(=O)N(c3cnn(Cc4c(C)noc4C)c3)C(=O)C2(C)C)c1 [Example 12-54, 1-(2,5-dimethoxybenzyl)-3-(1-((3,5-dimethylisoxazol-4-yl)methyl)-1H-pyrazol-4-yl)-5,5-dimethylimidazolidine-2,4-dione]
- IC50 [1]: 0.2 µM

SMILES: Cc1noc(C)c1Cn1cc(N2C(=O)N(Cc3cccc(OCCO)c3)C(C)(C)C2=O)cn1 [Example 12-63, 3-(1-((3,5-dimethylisoxazol-4-yl)methyl)-1H-pyrazol-4-yl)-1-(3-(2-hydroxyethoxy)benzyl)-5,5-dimethylimidazolidine-2,4-dione]
- IC50 [1]: 0.28 µM

SMILES: Cc1noc(C)c1Cn1cc(NCc2ccccc2C#N)cn1 [Example 9-2, 2-((1-((3,5-dimethylisoxazol-4-yl)methyl)-1H-pyrazol-4-ylamino)methyl)benzonitrile]
- IC50 [2]: > 30 µM

SMILES: COc1cc(CN2C(=O)N(c3cnn(Cc4c(C)noc4C)c3)C(=O)C2(C)C)cc(OC)c1 [Example 12-18, 1-(3,5-dimethoxybenzyl)-3-(1-((3,5-dimethylisoxazol-4-yl)methyl)-1H-pyrazol-4-yl)-5,5-dimethylimidazolidine-2,4-dione]
- IC50 [2]: 0.3 µM

SMILES: Cc1noc(C)c1Cn1cc(N2C(=O)CN(Cc3ccc(F)cc3)C2=O)cn1 [Example 10-31, 3-(1-((3,5-dimethylisoxazol-4-yl)methyl)-1H-pyrazol-4-yl)-1-(4-fluorobenzyl)imidazolidine-2,4-dione]
- IC50 [3]: 0.045 µM
- IC50 [4]: 0.05 µM

SMILES: Cc1noc(C)c1Cn1cc(NC(=O)c2cccc(Cl)c2)cn1 [Example 4-80, 3-chloro-N-(1-((3,5-dimethylisoxazol-4-yl)methyl)-1H-pyrazol-4-yl)benzamide]
- IC50 (Table A, read-out: hT2R8 IC50): 0.9 µM

SMILES: COC(=O)c1ccc(CN2C(=O)N(c3cnn(Cc4c(C)noc4C)c3)C(=O)C2(C)C)cc1 [Example 12-57, methyl 4-((3-(1-((3,5-dimethylisoxazol-4-yl)methyl)-1H-pyrazol-4-yl)-5,5-dimethyl-2,4-dioxoimidazolidin-1-yl)methyl)benzoate]
- IC50 [1]: 0.23 µM

SMILES: Cc1noc(C)c1Cn1cc(N2C(=O)[C@@H](C)N(Cc3cccc(O)c3)C2=O)cn1 [Example 12-7, (R)-3-(1-((3,5-dimethylisoxazol-4-yl)methyl)-1H-pyrazol-4-yl)-1-(3-hydroxybenzyl)-5-methylimidazolidine-2,4-dione]
- IC50 [2]: 0.02 µM

SMILES: Cc1noc(C)c1Cn1cc(NS(=O)(=O)c2ccccc2F)cn1 [Example 4-100, N-(1-((3,5-dimethylisoxazol-4-yl)methyl)-1H-pyrazol-4-yl)-2-fluorobenzenesulfonamide]
- IC50 (Table A, read-out: hT2R8 IC50): 8.51 µM

SMILES: Cc1noc(C)c1Cn1cc(N2C(=O)N(Cc3cccc(O)n3)C(C)(C)C2=O)cn1 [Example 12-72, 3-(1-((3,5-dimethylisoxazol-4-yl)methyl)-1H-pyrazol-4-yl)-1-((6-hydroxypyridin-2-yl)methyl)-5,5-dimethylimidazolidine-2,4-dione]
- IC50 [1]: 0.44 µM

SMILES: Cc1noc(C)c1Cn1cc(NC(=O)CCc2ccccc2)cn1 [Example 4-55, N-(1-((3,5-dimethylisoxazol-4-yl)methyl)-1H-pyrazol-4-yl)-3-phenylpropanamide]
- IC50 (Table A, read-out: hT2R8 IC50): 0.49 µM

SMILES: Cc1noc(C)c1Cn1cc(N2C(=O)N(Cc3cccc(F)c3F)C(C)(C)C2=O)cn1 [Example 12-66, 1-(2,3-difluorobenzyl)-3-(1-((3,5-dimethylisoxazol-4-yl)methyl)-1H-pyrazol-4-yl)-5,5-dimethylimidazolidine-2,4-dione]
- IC50 [1]: 0.31 µM

SMILES: COc1cc(CN2C(=O)N(c3cnn(Cc4c(C)noc4C)c3)C(=O)C2(C)C)ccc1F [Example 12-20, 3-(1-((3,5-dimethylisoxazol-4-yl)methyl)-1H-pyrazol-4-yl)-1-(4-fluoro-3-methoxybenzyl)-5,5-dimethylimidazolidine-2,4-dione]
- IC50 [2]: 0.18 µM

SMILES: COc1cc(C(=O)Nc2cnn(Cc3c(C)noc3C)c2)cc2c1OC(C)O2 (stereo not shown) [Example 4-94, N-(1-((3,5-dimethylisoxazol-4-yl)methyl)-1H-pyrazol-4-yl)-7-methoxy-2-methylbenzo[d][1,3]dioxole-5-carboxamide]
- IC50 [2]: 0.7 µM

SMILES: Cc1noc(C)c1Cn1cc(-n2c(=O)[nH]c(=O)n(Cc3ccccc3)c2=O)cn1 [Example 9-9, 1-benzyl-3-(1-((3,5-dimethylisoxazol-4-yl)methyl)-1H-pyrazol-4-yl)-1,3,5-triazinane-2,4,6-trione]
- IC50 [2]: 1.14 µM
- IC50 [3]: 1.56 µM

SMILES: Cc1noc(C)c1Cn1cc(N2C(=O)CN(CCc3ccc(O)cc3)C2=O)cn1 [Example 10-86, 3-(1-((3,5-dimethylisoxazol-4-yl)methyl)-1H-pyrazol-4-yl)-1-(4-hydroxyphenethyl)imidazolidine-2,4-dione]
- IC50 [2]: 0.41 µM
- IC50 [3]: 0.412 µM

SMILES: COc1ccc(CN2CC(=O)N(c3cnn(Cc4c(C)noc4C)c3)C2=O)cc1OC [Example 10-35, 1-(3,4-dimethoxybenzyl)-3-(1-((3,5-dimethylisoxazol-4-yl)methyl)-1H-pyrazol-4-yl)imidazolidine-2,4-dione]
- IC50 [3]: 0.051 µM
- IC50 [4]: 0.06 µM

SMILES: Cc1noc(C)c1Cn1cc(N2C(=O)CN(Cc3ccccc3C(F)(F)F)C2=O)cn1 [Example 10-22, 3-(1-((3,5-dimethylisoxazol-4-yl)methyl)-1H-pyrazol-4-yl)-1-(2-(trifluoromethyl)benzyl)imidazolidine-2,4-dione]
- IC50 [3]: 0.221 µM
- IC50 [4]: 0.2 µM

SMILES: COc1cccc(C(=O)Nc2nnn(Cc3c(C)noc3C)n2)c1 [Example 4-114, N-(2-((3,5-dimethylisoxazol-4-yl)methyl)-2H-tetrazol-5-yl)-3-methoxybenzamide]
- IC50 (Table A, read-out: hT2R8 IC50): 1.87 µM

SMILES: COc1cc(CC(=O)Nc2cnn(Cc3c(C)noc3C)c2)ccc1O [Example 4-69, N-(1-((3,5-dimethylisoxazol-4-yl)methyl)-1H-pyrazol-4-yl)-2-(4-hydroxy-3-methoxyphenyl)acetamide]
- IC50 (Table A, read-out: hT2R8 IC50): 4.7 µM

SMILES: Cc1noc(C)c1Cn1cc(NC(=O)c2ccncc2)cn1 [Example 4-50, N-(1-((3,5-dimethylisoxazol-4-yl)methyl)-1H-pyrazol-4-yl)isonicotinamide]
- IC50 (Table A, read-out: hT2R8 IC50): 4.59 µM

SMILES: Cc1noc(C)c1Cn1cc(N2C(=O)N(CCc3cc(F)cc(F)c3)C(C)(C)C2=O)cn1 [Example 12-70, 1-(3,5-difluorophenethyl)-3-(1-((3,5-dimethylisoxazol-4-yl)methyl)-1H-pyrazol-4-yl)-5,5-dimethylimidazolidine-2,4-dione]
- IC50 [1]: 0.4 µM

SMILES: Cc1noc(C)c1Cn1cnc(NC(=O)c2ccc3c(c2)OCO3)c1 [Example 10-40, N-(1-((3,5-dimethylisoxazol-4-yl)methyl)-1H-imidazol-4-yl)benzo[d][1,3]dioxole-5-carboxamide]
- IC50 [2]: 12.1 µM

SMILES: COC(=O)c1cccc(CN2CC(=O)N(c3cnn(Cc4c(C)noc4C)c3)C2=O)c1 [Example 10-7, methyl 3-((3-(1-((3,5-dimethylisoxazol-4-yl)methyl)-1H-pyrazol-4-yl)-2,4-dioxoimidazolidin-1-yl)methyl)benzoate]
- IC50 [2]: 0.09 µM
- IC50 [3]: 0.102 µM

SMILES: Cc1noc(C)c1Cn1cc(NC(=O)c2cc3c(cc2Cl)OCCO3)cn1 [Example 4-90, 7-chloro-N-(1-((3,5-dimethylisoxazol-4-yl)methyl)-1H-pyrazol-4-yl)-2,3-dihydrobenzo[b][1,4]dioxine-6-carboxamide]
- IC50 (Table A, read-out: hT2R8 IC50): 0.1 µM

SMILES: Cc1noc(C)c1Cn1cc(N2C(=O)CN(Cc3ccccc3O)C2=O)cn1 [Example 10-11, 3-(1-((3,5-dimethylisoxazol-4-yl)methyl)-1H-pyrazol-4-yl)-1-(2-hydroxybenzyl)imidazolidine-2,4-dione]
- IC50 [3]: 0.069 µM
- IC50 [4]: 0.07 µM

SMILES: Cc1noc(C)c1Cn1cc(N2C(=O)CN(Cc3cccc(C#N)c3)C2=O)cn1 [Example 10-25, 3-((3-(1-((3,5-dimethylisoxazol-4-yl)methyl)-1H-pyrazol-4-yl)-2,4-dioxoimidazolidin-1-yl)methyl)benzonitrile]
- IC50 [3]: 1 µM
- IC50 [4]: 1 µM

SMILES: Cc1ccc(CN2C(=O)N(c3cnn(Cc4c(C)noc4C)c3)C(=O)C2(C)C)c(C)c1 [Example 12-86, 1-(2,4-dimethylbenzyl)-3-(1-((3,5-dimethylisoxazol-4-yl)methyl)-1H-pyrazol-4-yl)-5,5-dimethylimidazolidine-2,4-dione]
- IC50 [1]: 1.89 µM

SMILES: COc1cccc(CC(=O)Nc2cnn(Cc3c(C)noc3C)c2)c1OC [Example 4-31, 2-(2,3-dimethoxyphenyl)-N-(1-((3,5-dimethylisoxazol-4-yl)methyl)-1H-pyrazol-4-yl)acetamide]
- IC50 (Table A, read-out: hT2R8 IC50): 0.8 µM

SMILES: Cc1ccccc1CN1CC(=O)N(c2cnn(Cc3c(C)noc3C)c2)C1=O [Example 10-20, 3-(1-((3,5-dimethylisoxazol-4-yl)methyl)-1H-pyrazol-4-yl)-1-(2-methylbenzyl)imidazolidine-2,4-dione]
- IC50 [3]: 0.133 µM
- IC50 [4]: 0.1 µM

SMILES: Cc1noc(C)c1Cn1cc(NC(=O)c2ccc3c(c2)OCCO3)cn1 [Example 4-88, N-(1-((3,5-dimethylisoxazol-4-yl)methyl)-1H-pyrazol-4-yl)-2,3-dihydrobenzo[b][1,4]dioxine-6-carboxamide]
- IC50 (Table A, read-out: hT2R8 IC50): 0.4 µM

SMILES: COc1cccc(CN2C(=O)N(c3cnn(Cc4c(C)noc4C)c3)C(=O)C2(C)C)n1 [Example 12-40, 3-(1-((3,5-dimethylisoxazol-4-yl)methyl)-1H-pyrazol-4-yl)-1-((6-methoxypyridin-2-yl)methyl)-5,5-dimethylimidazolidine-2,4-dione]
- IC50 [1]: 0.08 µM
